Experimental findings from ChEMBL document CHEMBL3046745, “Sensitivity of Cucumber Powdery Mildew Fungus (Sphaerotheca fuliginea) to Several Fungicides” (J Pestic Sci, 1991) are described below.

Structures are written as SMILES.

Experiment [1] has as its system Podosphaera fuliginea. Briefly: Resistant ratio, ratio of EC50 for Podosphaera fuliginea isolate N-2 to EC50 for Podosphaera fuliginea isolate K-7. Type of experiment: functional.
Experiment [2] deals with Podosphaera fuliginea. Briefly: Resistant ratio, ratio of EC50 for Podosphaera fuliginea isolate N-1 to EC50 for Podosphaera fuliginea isolate K-7. It is filed as functional.
For experiment [3], the system named is Podosphaera fuliginea. Briefly: Resistant ratio, ratio of EC50 for Podosphaera fuliginea isolate S-2 to EC50 for Podosphaera fuliginea isolate K-7. Type of experiment: functional.
Experiment [4] relates to Podosphaera fuliginea. The experiment can be described thus: Antifungal activity against Podosphaera fuliginea isolate K-7 in cucumber plants assessed as percentage of infected leaf area at 62.5 ppm treated 3 times at 7-day interval by foliar spray test. It is filed as functional.
The subject of experiment [5] is Podosphaera fuliginea. The experiment can be described thus: Antifungal activity against Podosphaera fuliginea isolate N-2 in cucumber plants assessed as percentage of infected leaf area at 62.5 ppm treated 3 times at 7-day interval by foliar spray test. Type of experiment: functional.
Experiment [6] deals with Podosphaera fuliginea. Briefly: Antifungal activity against Podosphaera fuliginea isolate N-1 in cucumber plants assessed as percentage of infected leaf area at 62.5 ppm treated 3 times at 7-day interval by foliar spray test. It is filed as functional.
Experiment [7] deals with Podosphaera fuliginea. The experiment can be described thus: Antifungal activity against Podosphaera fuliginea isolate S-2 in cucumber plants assessed as percentage of infected leaf area at 62.5 ppm treated 3 times at 7-day interval by foliar spray test. It is filed as functional.
Experiment [8] relates to Podosphaera fuliginea. The experiment can be described thus: Antifungal activity against Podosphaera fuliginea isolate K-7 in cucumber plants by leaf disc method. It is filed as functional, organism-based.
The test system of experiment [9] is Podosphaera fuliginea. The experiment can be described thus: Antifungal activity against Podosphaera fuliginea isolate N-2 in cucumber plants by leaf disc method. It is filed as functional, organism-based.
The test system of experiment [10] is Podosphaera fuliginea. The experiment can be described thus: Antifungal activity against Podosphaera fuliginea isolate N-1 in cucumber plants by leaf disc method. It is filed as functional, organism-based.
Experiment [11] has as its system Podosphaera fuliginea. Briefly: Antifungal activity against Podosphaera fuliginea isolate S-2 in cucumber plants by leaf disc method. Type of experiment: functional, organism-based.
For experiment [12], the system named is Podosphaera fuliginea. The experiment can be described thus: Antifungal activity against Podosphaera fuliginea isolate K-7 in cucumber plants assessed as percentage of infected leaf area at 25 ppm treated 3 times at 7-day interval by foliar spray test. Type of experiment: functional.
Experiment [13] deals with Podosphaera fuliginea. The experiment can be described thus: Antifungal activity against Podosphaera fuliginea isolate N-2 in cucumber plants assessed as percentage of infected leaf area at 25 ppm treated 3 times at 7-day interval by foliar spray test. It is filed as functional.
The subject of experiment [14] is Podosphaera fuliginea. The experiment can be described thus: Antifungal activity against Podosphaera fuliginea isolate N-1 in cucumber plants assessed as percentage of infected leaf area at 25 ppm treated 3 times at 7-day interval by foliar spray test. It is filed as functional.
Experiment [15] relates to Podosphaera fuliginea. The experiment can be described thus: Antifungal activity against Podosphaera fuliginea isolate S-2 in cucumber plants assessed as percentage of infected leaf area at 25 ppm treated 3 times at 7-day interval by foliar spray test. It is filed as functional.
Experiment [16] concerns Podosphaera fuliginea. The experiment can be described thus: Antifungal activity against Podosphaera fuliginea isolate K-7 in cucumber plants assessed as percentage of infected leaf area at 466.7 ppm treated 3 times at 7-day interval by foliar spray test. It is filed as functional.
Experiment [17] relates to Podosphaera fuliginea. The experiment can be described thus: Antifungal activity against Podosphaera fuliginea isolate N-2 in cucumber plants assessed as percentage of infected leaf area at 466.7 ppm treated 3 times at 7-day interval by foliar spray test. It is filed as functional.
Experiment [18] relates to Podosphaera fuliginea. The experiment can be described thus: Antifungal activity against Podosphaera fuliginea isolate N-1 in cucumber plants assessed as percentage of infected leaf area at 466.7 ppm treated 3 times at 7-day interval by foliar spray test. It is filed as functional.
Experiment [19] concerns Podosphaera fuliginea. Briefly: Antifungal activity against Podosphaera fuliginea isolate S-2 in cucumber plants assessed as percentage of infected leaf area at 466.7 ppm treated 3 times at 7-day interval by foliar spray test. It is filed as functional.
For experiment [20], the system named is Podosphaera fuliginea. Briefly: Antifungal activity against Podosphaera fuliginea isolate K-7 in cucumber plants assessed as percentage of infected leaf area at 125 ppm treated 3 times at 7-day interval by foliar spray test. Type of experiment: functional.
The subject of experiment [21] is Podosphaera fuliginea. The experiment can be described thus: Antifungal activity against Podosphaera fuliginea isolate N-2 in cucumber plants assessed as percentage of infected leaf area at 125 ppm treated 3 times at 7-day interval by foliar spray test. Type of experiment: functional.
In experiment [22] the test system is Podosphaera fuliginea. The experiment can be described thus: Antifungal activity against Podosphaera fuliginea isolate N-1 in cucumber plants assessed as percentage of infected leaf area at 125 ppm treated 3 times at 7-day interval by foliar spray test. It is filed as functional.
Experiment [23] deals with Podosphaera fuliginea. Briefly: Antifungal activity against Podosphaera fuliginea isolate S-2 in cucumber plants assessed as percentage of infected leaf area at 125 ppm treated 3 times at 7-day interval by foliar spray test. Type of experiment: functional.

For the compound `CCCCc1c(C)nc(N(C)C)nc1O` [DIMETHIRIMOL], the “Ratio EC50” value is 218.6 in [1], 223.7 in [2] and 157.3 in [3]. Also, the Activity in experiment [4] is given as 98.8%; in experiment [5], 47.4%; in experiment [6], 49.4%; in experiment [7], 55.2%. For the same compound, the EC50 is reported as 2.95 ×10⁻² ppm in [8], 6.45 ppm in experiment [9], 6.6 ppm in [10] and 4.64 ppm in experiment [11].
On to `CC(C)(C)C(=O)C(Oc1ccc(Cl)cc1)n1cncn1` (centres undefined) [TRIADIMEFON], for which the “Ratio EC50” value stood at 553.4 in experiment [1], 94.4 in experiment [2] and 1.8 in experiment [3]. For the same compound, the Activity in [12] was 98.8%; in [13] it was 45.8%; in [14] it was 76%; in experiment [15], 100%. Further, the EC50 in experiment [8] amounted to 1.03 ×10⁻² ppm; in [9], 5.7 ppm; in experiment [10] it was 9.72 ×10⁻¹ ppm; in [11], 1.82 ×10⁻² ppm.
In the case of `COC(=O)NC(=S)Nc1ccccc1NC(=S)NC(=O)OC` [THIOPHANATE METHYL], the results for the “Ratio EC50” value in experiment [1], in experiment [2] and in experiment [3] were 26531.4, 25092.3 and 17675.3, respectively. For the same compound, the Activity in [16] came to 97.8%; in experiment [17], 11.9%; in experiment [18] it was 5.1%; in experiment [19] it was 0%. For the same compound, the EC50 in experiment [8] stood at 2.71 ×10⁻² ppm; in [9], 719 ppm; in experiment [10], 680 ppm; in experiment [11], 479 ppm.
As for `Cc1ccc2nc3sc(=O)sc3nc2c1` [CHINOMETHIONAT], the “Ratio EC50” value in experiment [1] was found to be 2.6; in experiment [2], 3.8; in [3], 3.9. The Activity in experiment [20] came to 96.5%; in experiment [21], 94.9%; in experiment [22], 91.1%; in experiment [23], 91.3%. In addition, the EC50 in [8] is listed as 1.27 ppm; in experiment [9] it was 3.35 ppm; in [10], 4.83 ppm; in [11], 4.95 ppm.
